Laboratory results from patent US6794409B2, “Use of ERβ-selective ligands for regulating fertility and compounds useful therefor” (priority 2001, dated 2004).
Read-outs that look alike come from different tables or passages of the source.

How the values were obtained:
[1] = tested on: estrogen receptor preparations from rat uteri; test: Competitive 3H-estradiol binding, rat uterus cytosol; details: 3H-estradiol as ligand, estradiol = 100
From the text: (§1) In this case, it is assumed that ERβ predominates in the rat prostates over ERα, and ERα predominates in rat uteri over ERβ.

[2] = tested on: estrogen receptor preparations from rat prostates; test: Competitive 3H-estradiol binding, rat prostate cytosol
From the text: as §1

hERβ [3] = details: cited from earlier work
hERβ [4] = test: Relative binding affinity to hERβ (Kuiper et al.); set-up: species or system human; details: quotient of RBA hERβ / hERα
From the text: as §1

[5] = tested on: hypophysectomized immature female Wistar rats; test: Effect on late folliculogenesis and ovulation in hypophysectomized rats; type: in vivo, rat; details: hypex immature Wistar rats; 0.01, 0.1 and 1 mg/day s.c. for 4 days, then PMSG and hCG; FIG. 3
Description: Intact immature female Wistar rats were hypophysectomized (hypex) on day 24 of age (day 0). The following hormone treatments were initiated six days after surgery:
(§2) (a) hypex rats treated with vehicle (control group) (ethanol/arachisoil: 1+9 [v/v]) only
(b) hypex rats treated with 0.01, 0.1 and 1 mg 17β-estradiol/day
(c) hypex rats treated with 0.01, 0.1 and 1 mg of the ERα-selective compound B
(d) hypex rats treated with 0.01, 0.1 and 1 mg of the […] compound C
Animals were subcutaneously treated once per day for 4 consecutive days with the respective compounds or vehicle (day 6, 7, 8, 9). Number of animals per group were […]. The animals were randomly assigned to the treatment and vehicle (control) group.
One day after the last injection (day 10) animals were subcutaneously injected with 20 IU prgenant mare serum gonadotropin (PMSG). Two days later, at […], 10 IU human Chorionic Gonadotropin (hCG) were injected intraperitoneally in order to induce ovulation. At day 14 animals were weighed and sacrificed by carbon dioxide asphyxiation. The oviducts and ovaries were removed:
The oviducts were flushed with a M-2 medium and the oocytes per animal were counted after enzymatic disassociation from the surrounding cumulus with M-2 medium supplemented with 0.3% hyaluironidase. For each treatment group and control group the mean number of ovulated oocytes were calculated.
The ovaries were excised and weighed. Relative ovarian weights (in milligrams), defined as relative ovarian wet weights, were calculated per 100 g body weight for each animal. For each treatment group and control group the mean relativewet weights were determined.
The one way ANOVA was applied to the data in order to compare treatment group values with the respective control group.

[6] = tested on: hypophysectomized immature female Wistar rats; test: Effect of ER-selective ligands on folliculogenesis in hypophysectomized rats; type: in vivo, rat; details: hypex immature Wistar rats
From the text: Intact immature female Wistar rats were hypophysectomized (hypex) on day 24 of age (d0). The following hormone treatments were initiated six days after surgery:
as §2
Animals were subcutaneously treated once per day for 4 consecutive days with the respective compounds or vehicle (day 6, 7, 8, 9). Number of animals per group were 5-6. The animals were randomly assigned to the treatment and vehicle (control) group.
One day after the last injection (day 10) animals were weighed and sacrificed by carbon dioxide asphyxiation. The ovaries were excised and weighed. Relative ovarian weights (in milligrams), defined as relative ovarian wet weights, were calculated per 100 g body weight for each animal. For each treatment group and control group the mean relative wet weights were determined. The one way ANOVA was applied to the data in order to compare treatment group values with the respective control group.
For histological evaluation, ovaries were placed in neutral buffered 3.7% formaldehyde solution. The ovaries were then embedded in paraffin, cut into 4 μm transverse sections, and stained with hematoxylin and eosin. Ovarian sections were then evaluated qualitatively for folliculogenesis.

[7] = tested on: intact immature female Wistar rats; test: Effect on ovulation rate after superovulation (PMSG/hCG) of immature rats; type: in vivo, rat
Description: Superovulation experiments were carried out in three groups of intact immature female Wistar rats on day 23 of age. Number of animals per group were 5. The animals were randomly assigned to the three groups.
Each animal received a single subcutaneous (s.c.) injection of 20 I.U. pregnant mare's serum gonadotropin (PMSG) at day 0. At the same time (day 0) as well as 24 hours and 48 hours later the animals were s.c. injected with
(a) the vehicle formulation (control group: ethanol/aracisoil: 1+9 [v/v]) (group 1) or
(b) an ERβ- selective antagonist 17-Chloro-17aα-(trifluoromethyl)-17a-homoestra-1,3,5(10)16-tetraene-3,17aβ-diol (compound E) at the dose of 1 mg/kg (group 2) and 10 mg/kg (group 3). 54 hours after the start of the experiment the animals got a single intraperitoneal (i.p.) injection of 10 I.U. human chorion gonadotropin (hCG). The animals were then killed 16 hours after the hCG injection.
The ovaries and oviducts were removed. The ovulated oocyte/cumulus mass was extracted from the oviduct by flushing the oviduct with M-2 medium and the oocytes per animal were counted after enzymatic disassociation from the surrounding cumulus with M-2 medium supplemented with 0.3% hyaluronidase.

## C[C@]12CC[C@H]3[C@@H](CC=C4C[C@@H](O)CC[C@@]43C)[C@@H]1CC[C@@H]2O [5-Androstenediol]
[1]
  Rat uterus ER(RBA): 0.1
[2]; rat prostate cytosol, 3H-estradiol as ligand, estradiol = 100
  Rat prost. ER(RBA): 5
[2]; ratio of RBA rat prostate ER / rat uterus ER
  prost. ER/uterus ER: 50
hERβ [3]
  hERβ RBA: 17
hERβ [4]
  ERβ/ERα: 3

## C[C@]12CC[C@@H]3c4ccc(O)cc4CC[C@H]3[C@@H]1C[C@@H](O)[C@@H]2O [Estriol]
hERβ [3]; relative binding affinity, estradiol = 100
  hERβ RBA: 21

## C[C@]12CC[C@@H]3c4ccc(O)cc4CC[C@H]3[C@@H]1C[C@H]1OC(=O)C[C@]12O [compound B, 3,17β-Dihydroxy-19-nor-17α-pregna-1,3,5(10)-triene-21,16α-lactone]
[5]
  number of ovulated oocytes: not able to significantly stimulate
  ovarian wet weight: not able to significantly stimulate
[6]; 0.01, 0.1 and 1 mg/day s.c. for 4 days, FIG. 1
  ovarian wet weight: not able to stimulate ovarian growth
[6]; s.c. for 4 days, hematoxylin and eosin sections, FIG. 2
  folliculogenesis, histological evaluation of ovaries: many small atretic follicles comparable to the vehicle control group

## C=C[C@@]12CCc3cc(O)ccc3[C@H]1CC[C@@]1(C)[C@H]2CC[C@@H]1O [compound C, 8β-Vinyl-1,3,5(10)-estratriene-3,17β-diol]
[5]
  number of ovulated oocytes: significantly increase the number of ovulated oocytes
  ovarian wet weight: significantly increase

## CC12CCC3c4ccc(O)cc4CCC3C1CC=C(Cl)C2(O)C(F)(F)F (stereo not drawn) [compound E, 17-Chloro-17aα-(trifluoromethyl)-17a-homoestra-1,3,5(10)16-tetraene-3,17aβ-diol]
[7]; 1 mg/kg/day × 3 days s.c., group 2
  Ovulation rate (ova/rat) [x ± sd]: 11 ± 5.6 ova/rat
[7]; 10 mg/kg/day × 3 days s.c., group 3
  Ovulation rate (ova/rat) [x ± sd]: 8 ± 7.2 ova/rat
[7]; 10 mg/kg/day × 3 days s.c., group 3, listed as ERβ-specific antagonist
  Ovulation rate (ova/rat) [x ± sd]: 8.0 ova/rat
